Key:
[1] = test system: pooled primary human hepatocyte suspensions; assay: Hepatic clearance assay (substrate depletion, LC-MS)
Procedure, shortened: (§1)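 Substrate depletion at 1 μM PFAS in pooled cryopreserved human hepatocytes (~0.5 × 10^6 viable cells/mL, 50-donor pool), 37 °C with shaking, sampled 0–240 min in triplicate. Quantified by LC-MS in negative ion mode against matrix-matched calibration; media-only or heat-inactivated cells as nonmetabolic-loss controls.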

[2] = IVIVE: steady-state concentration (Css), generic HTTK model; design: species or system human; conditions: for Css: human steady-state concentration, 1 mg/kg/day exposure rate, loss of parent compound only
Procedure, shortened: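 Human Css estimated by IVIVE: plasma protein binding converted to blood fraction unbound via blood-to-plasma partitioning, and experimental Clint scaled with liver scalars to whole liver clearance. AEDs then derived by reverse dosimetry from Css and PFAS in vitro POD, defined as fifth-percentile AC50.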

[3] = test system: pooled primary human hepatocyte suspensions; conditions: both, hepatocytes, 1 μM
From the text: Markov Chain Monte Carlo was employed in a Bayesian analysis to estimate uncertainty of the hepatic clearance point measures as previously described, but with some modifications [10]. Briefly, after organizing PFAS-level data into a single file, the relationship between the relevant measurement process parameters was described in a graphic model in JAGS language [13] interfaced through R. For hepatic clearance data, the model describes the PFAS-specific mass spectrometric response factor between analyte peak ratio (to internal standard) and chemical concentration. […] The assumed prior for whether the chemical degraded abiotically in vitro followed a Bernoulli distribution with a 5% chance of abiotic degradation. Separate biotic and abiotic components for chemical elimination were estimated, each with a slope following an assumed uniform prior distribution bounded between the zero and the -log (limit of quantitation/Ctest). In scenarios where an external calibration without internal standard was used, the response factor was calculated using the analyte peak alone, introducing additional uncertainty due to the inability to normalize for recovery issues. The model was analyzed jointly by JAGS using five Markov chains. Convergence was identified by requiring the five chains to be consistent, as indicated by the potential scale reduction factor [14] being less than 1.1. The analysis was performed using EPA-developed R package invitroTKstats, available upon request.

[4] = test system: plasma protein; conditions: cited from earlier work; for fup (fraction unbound in plasma): human plasma
[5] = in vitro; conditions: both, human, hepatocytes
Procedure, shortened: as §1

[6] = Administered equivalent dose (AED) by reverse dosimetry; design: species or system human; conditions: from Css and AC50 POD by reverse dosimetry
Method: IVIVE was performed as previously described to calculate human steady-state concentrations (Css). Briefly, experimental plasma protein binding data presented elsewhere were transformed to fraction unbound in blood using blood-to-plasma partitioning values. Experimental Clint values generated here are used in conjunction with relevant liver scalars to scale up to estimate whole liver clearance. […] Once Css values were established, these were used with the PFAS-specific in vitro POD data to calculate the administered equivalent doses (AEDs) using reverse dosimetry. […] The fifth-percentile AC50 value was used to define the in vitro POD. All relevant inputs, scalars, and calculations are provided in Supplementary Information, as indicated in the results.

[7] = design: method as in PMID 32648786; conditions: human; cited from earlier work
[8] = design: method as in PMID 26085347; conditions: simulation; cited from earlier work
[9] = design: method as in PMID 36851038; conditions: dynamic one-compartment model; cited from earlier work
[10] = unadjusted hepatic intrinsic clearance, pooled primary human hepatocyte suspensions, Table S4, in µL/min/10^6 cells
[11] = Assuming 1 mg/kg/day dose rate, BW 70 kg

Structure (SMILES): O=C(O)C=CC(F)(C(F)(F)F)C(F)(F)F [3-(Perfluoroisopropyl)-2-propenoic acid]
- CLint for HTTK ([1]; CLint value carried into HTTK/IVIVE, in µL/min/10^6 cells): 0
- in vitro CLint exp assay ([1]; pooled primary human hepatocyte suspensions, in µL/min/10^6 cells): 0
- Unadj Clint [1, 10]: 1.23
- Css (mg/L) [2, 11]: 2.41 mg/L
- Css (uM) [2, 11]: 10.03 µM
- CLhep ([2]; QL 1500000 uL/min): 0.000 L/h
- Fub ([2]; fub=fup/(B:P), Fub set to 1 if needed): 0.1824
- CLint ([2]; scaled to whole liver: HPGL 110 mill cells/g, Vl 1596 g): 0 µL/min
- Clint.1.Med [3]: 0
- Mean fu ([4]; fraction unbound in plasma, input for IVIVE calculations): 0.1003

Structure (SMILES): CCNS(=O)(=O)C(F)(F)C(F)(F)C(F)(F)C(F)(F)C(F)(F)C(F)(F)C(F)(F)C(F)(F)F [NEtFOSA, N-Ethylperfluorooctanesulfonamide]
- hepatocyte CLint at 1 μM [5]: > 15 µL/min/1e6 cells
- Unadj Clint ([1]; both, human, hepatocytes, 1 μM): 24.92
- Clint.1.Med [3]: 164

Structure (SMILES): O=S(=O)(O)C(F)(F)C(F)(F)C(F)(F)C(F)(F)F [PFBS, Perfluorobutanesulfonic acid]
- hepatocyte CLint at 1 μM [5]: 4.75 µL/min/1e6 cells
- In Vitro Clint ([1]; Table 3, pooled human hepatocyte suspension, 1 μM, 0 = no significant clearance): 4.75 μL/min/million cells
- Unadj Clint [1, 10]: 4.75
- Css [2]: 7.51 µM
- AED [6]: 0.83 mg/kg/day
- estimated half life [7]: as low as one month
- fup (fraction unbound in plasma) [4]: 0.0128

Structure (SMILES): O=C(O)C(F)(F)C(F)(F)C(F)(F)C(F)(F)C(F)(F)C(F)(F)C(F)(F)F [PFOA, Perfluorooctanoic acid]
- Unadj Clint ([1]; unadjusted hepatic intrinsic clearance, pooled primary human hepatocyte suspensions, Table S4, listed as Perfluorooctanoic acid, in µL/min/10^6 cells): 1.49
- Css [2]: 582.99 µM
- AED [6]: 0.01 mg/kg/day
- time to reach steady state [8]: 3.5 years
- fup (fraction unbound in plasma) [4]: 0.0010

Structure (SMILES): O=S(=O)(O)C(F)(F)C(F)(F)C(F)(F)C(F)(F)C(F)(F)C(F)(F)C(F)(F)C(F)(F)F [PFOS, Perfluorooctanesulfonic acid]
- Unadj Clint ([1]; unadjusted hepatic intrinsic clearance, pooled primary human hepatocyte suspensions, Table S4, listed as Perfluorooctanesulfonic acid, in µL/min/10^6 cells): 1.38
- Css [2]: 98.52 µM
- AED [6]: 0.08 mg/kg/day
- time to reach steady state [8]: 6.6 years
- time to reach steady-state values [9]: 30 years
- fup (fraction unbound in plasma) [4]: 0.0049

Structure (SMILES): NS(=O)(=O)C(F)(F)C(F)(F)C(F)(F)C(F)(F)C(F)(F)C(F)(F)C(F)(F)C(F)(F)F [PFOSA, Perfluorooctanesulfonamide]
- hepatocyte CLint at 1 μM [5]: > 15 µL/min/1e6 cells
- Unadj Clint ([1]; both, human, hepatocytes, 1 μM): 22.84
- Clint.1.Med [3]: 0

— publication PMC11435625, “In Vitro Hepatic Clearance Evaluations of Per- and Polyfluoroalkyl Substances (PFAS) across Multiple Structural Categories” (Toxics, 2024)
